Source: patent US10206904B2, “Licofelone derivatives and methods of use” (The Board of Regents of the University of Oklahoma, priority 2015, dated 2019)
Entries after “also recorded” stand apart in the source; their conditions may differ. Like-named read-outs stand apart in the source and are kept apart here.

Conditions: for Major Organ Toxicity / Liver enzymes ALKP / Liver enzymes ALT / Liver enzymes AST / Liver enzymes LDH / Ulceration (Grade) Colon / Ulceration (Grade) Small Intestine / Ulceration (Grade) Stomach: 6 weeks, male C57 mice; for Liver enzymes ALKP / Liver enzymes ALT / Liver enzymes AST / Liver enzymes LDH: Mean ± SEM
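Also: gross examination of all organs at necropsy, with liver enzyme profile and GI ulceration assessed in collected tissues and blood.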

Description: Body weights and symptoms of toxicity were recorded twice weekly for 6 weeks. […] All organs were examined grossly for any abnormalities upon necropsy. Livers, kidney, stomach, intestinal tract, and blood were obtained from the animals and analyzed for Liver enzyme profile, GI ulceration, and levels of test agents.
All animals found dead will be necropsied to confirm that the most likely cause of death was due to intestinal ulcerations.

## CCCCCCC(Sc1nc(Cl)cc(Nc2cccc(C)c2C)n1)C(=O)O (stereo not shown) [YS-121, reference compound]
25 ppm in diet
  Major Organ Toxicity: None
  Liver enzymes ALKP: 183 ± 24 units/L
  Liver enzymes ALT: 81 ± 11 units/L
  Liver enzymes AST: 77 ± 8.6 units/L
  Liver enzymes LDH: 388 ± 29 units/L
50 ppm in diet
  Major Organ Toxicity: None
  Liver enzymes ALKP: 198 ± 33 units/L
  Liver enzymes ALT: 96 ± 14 units/L
  Liver enzymes AST: 90 ± 7.8 units/L
  Liver enzymes LDH: 451 ± 38 units/L
75 ppm and above dose levels in diet, mice
  toxicity: significant toxicity
75 ppm in diet
  Major Organ Toxicity: Liver
  Liver enzymes ALKP: 358 ± 47 units/L
  Liver enzymes ALT: 147 ± 17 units/L
  Liver enzymes AST: 118 ± 18 units/L
  Liver enzymes LDH: 540 ± 51 units/L
100 ppm in diet
  Major Organ Toxicity: Liver*
  Ulceration (Grade) Colon: Grade: 0, 1
  Ulceration (Grade) Small Intestine: Grade: 1
  Ulceration (Grade) Stomach: Grade: 2-3
  Liver enzymes ALKP: 477 ± 51 units/L
  Liver enzymes ALT: 194 ± 23 units/L
  Liver enzymes AST: 169 ± 29 units/L
  Liver enzymes LDH: 883 ± 68 units/L
200 ppm in diet
  Major Organ Toxicity: Liver**; also recorded: Stomach
  Ulceration (Grade) Colon: Grade: 2
  Ulceration (Grade) Small Intestine: Grade: 4
  Ulceration (Grade) Stomach: Grade: 5
